The values below are quoted from earlier work in patent publication US20190209538A1, “Precision Controlled Load and Release Particles for Post-Operative Pain” (LIQUIDIA TECHNOLOGIES, INC., priority 2016, published 2019).

The structures appear in SMILES notation.

The conditions of data set [1]: in vivo.
For data set [2] the following is noted: room temperature, aqueous system between pH 7.0 and pH 9.0.

As to `CCCN1CCCC[C@H]1C(=O)Nc1c(C)cccc1C` [ropivacaine], in data set [1], the clearance rate is on record as around 0.72 L/min.

With `CCCCN1CCCCC1C(=O)Nc1c(C)cccc1C` (stereo not shown) [bupivacaine free base, bupivacaine], the “solubility relative to bupivacaine HCl” value in data set [2] is reported as “less soluble than bupivacaine HCl”.

On to `CCCCN1CCCCC1C(=O)Nc1c(C)cccc1C` (stereo not shown) [bupivacaine], for which, in data set [1], the clearance rate is 0.58 L/min.

On to `CCCCN1CCCC[C@H]1C(=O)Nc1c(C)cccc1C` [levobupivacaine], for which the clearance rate in data set [1] is given as 0.32 L/min.
